Tests used:
EGFR = biological target: T1, EGFR (Homo sapiens, UniProt P00533); test: EGFR Kinase Assay; type: biochemical; details: GST-EGFR, 5 μM ATP
T1 construct: started at nucleotide 2189 (corresponding to amino acid 667) and ended at the termination codon; made in house; host or cells: Sf9 insect cells (baculovirus)
Outline: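 Baculovirus/Sf9-expressed GST-EGFR with biotinylated polyGluTyr substrate, 5 μM ATP plus γ-33P-ATP, in 50 mM Tris pH 8.0, 10 mM MgCl2, 0.1 mM vanadate, 1 mM DTT; 1 h at 30 °C.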

c-Src kinase = biological target: T2, c-Src kinase (Homo sapiens, UniProt P12931); test: c-Src Kinase Assay; type: biochemical; details: test concentration of 1 μM
T2 construct: purchased Upstate Biotechnology, Lake Placid, N.Y
T2 sequence (P12931 whole entry): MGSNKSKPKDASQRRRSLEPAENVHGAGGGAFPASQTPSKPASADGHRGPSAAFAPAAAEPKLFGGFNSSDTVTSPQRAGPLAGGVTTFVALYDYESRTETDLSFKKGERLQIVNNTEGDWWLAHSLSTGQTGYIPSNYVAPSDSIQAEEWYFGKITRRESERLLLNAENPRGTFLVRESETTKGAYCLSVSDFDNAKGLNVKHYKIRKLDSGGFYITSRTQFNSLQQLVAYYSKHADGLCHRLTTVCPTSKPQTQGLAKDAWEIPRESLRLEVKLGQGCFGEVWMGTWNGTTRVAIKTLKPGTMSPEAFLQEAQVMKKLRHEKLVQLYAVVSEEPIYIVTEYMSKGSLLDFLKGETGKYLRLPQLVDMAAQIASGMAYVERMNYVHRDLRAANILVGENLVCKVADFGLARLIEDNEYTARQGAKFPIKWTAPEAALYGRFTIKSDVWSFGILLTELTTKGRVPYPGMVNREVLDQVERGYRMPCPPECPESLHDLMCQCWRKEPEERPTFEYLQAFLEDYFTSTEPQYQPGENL
Method: A mixure of a 10× kinase buffer (80 mM MOPS at pH 7.0, 2 mM EDTA and 100 mM Magnesium Chloride), ATP (5 μM final from a 10 mM stock), a Cdc2 peptide […] (100 μM final from a 2.5 mM stock), γ-^33P ATP (10 μCi/μL stock) and water (20 μL/well) was added to each well of a Streptavidin Flashplate.
Test compound in 100% DMSO (0.5 μL) was added to the appropriate wells. Diluted c-Src kinase (human) (Upstate Biotechnology, Lake Placid, N.Y.) (diluted in a buffer consisting of 20 mM MOPS at pH 7.0, 1 mM EDTA, β-mercaptoethanol (0.1%), Brij-35 (0.01%), glycerol (5%), and 1 mg/mL bovine serum albumin) (2.5 μL) was added to the wells to initiate the reactions. The reaction plates were incubated at 30° C. for 40 min. The reaction was terminated by the addition of a 3% phosphoric acid solution (5 μL). The reaction product (10 μL) was spotted onto a P30 filtermat and washed for 5 minutes in phosphoric acid (75 mM). The wash sequence was repeated two more times, followed with one final wash in methanol. The plates were then dried, sealed and read on the TopCount scintillation counter after adding 30 μL scintillation fluid.
Percent inhibition was derived according to the procedure described in Example 5. The results for those compounds tested are shown in Table 2 at a test concentration of 1 μM.

Lyn kinase = biological target: T3, Lyn kinase (Homo sapiens, UniProt P07948); test: Lyn Kinase Assay; type: biochemical; details: test concentration of 1 μM
T3 construct: purchased Upstate biotechnology, Lake Placid, N.Y
T3 sequence (P07948 whole entry): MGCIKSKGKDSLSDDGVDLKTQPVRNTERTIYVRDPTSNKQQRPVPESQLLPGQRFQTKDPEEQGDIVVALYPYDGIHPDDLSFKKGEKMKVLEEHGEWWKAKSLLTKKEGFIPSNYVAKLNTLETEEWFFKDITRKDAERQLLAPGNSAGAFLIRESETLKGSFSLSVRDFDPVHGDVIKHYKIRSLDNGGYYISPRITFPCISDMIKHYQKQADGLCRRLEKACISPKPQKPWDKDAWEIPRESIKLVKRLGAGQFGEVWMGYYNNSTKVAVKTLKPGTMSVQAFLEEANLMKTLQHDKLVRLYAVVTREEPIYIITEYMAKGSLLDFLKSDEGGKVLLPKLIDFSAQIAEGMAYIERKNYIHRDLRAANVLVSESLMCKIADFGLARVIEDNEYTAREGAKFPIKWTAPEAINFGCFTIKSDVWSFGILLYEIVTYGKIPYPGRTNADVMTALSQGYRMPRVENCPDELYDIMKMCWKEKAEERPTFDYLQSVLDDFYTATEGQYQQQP
Method: A mixture of a 10× kinase buffer (500 mM MOPS at pH 7.5, 1 mM EGTA, 1 mM Sodium Vanadate, 1% β-mercaptoethanol and 100 mM Magnesium Acetate), ATP (5 μM final from a 10 mM stock), polyGluTyr (0.1 mg/mL final from a 1 mg/mL stock), γ-^33P ATP (10 μCi/μL stock) and water (20 μL/well) was added to each well of a Streptavidin Flashplate.
Test compound in 100% DMSO (0.5 μL) was added to the appropriate wells. Diluted Lyn kinase (human) (Upstate biotechnology, Lake Placid, N.Y) (diluted in a buffer consisting of 50 mM Tris at pH 7.5, 0.1 mM EGTA, Sodium Vanadate (0.1 mM), β-mercaptoethanol (0.1%) and 1 mg/mL bovine serum albumin) (2.5 μL) was added to the wells to initiate the reactions.
The reaction plates were incubated at 30° C. for 40 min. The reaction was terminated by the addition of a 3% phosphoric acid solution (5 μL). The reaction product (10 μL) was spotted onto a P30 filtermat and washed for 5 minutes in phosphoric acid (75 mM). The wash sequence was repeated two more times, followed with one final wash in methanol. The plates were then dried, sealed and read on the TopCount scintillation counter after adding 30 μL scintillation fluid.
Percent inhibition was derived according to the procedure described in Example 5. The results for those compounds tested are shown in Table 3 at a test concentration of 1 μM.

c-Abl kinase = biological target: T4, c-Abl kinase (Homo sapiens, UniProt P00519); test: c-Abl Kinase Assay; type: biochemical; details: test concentration of 1 μM; read-out: c-Abl percent inhibition
T4 construct: purchased Upstate Biotechnology, Lake Placid, N.Y
T4 sequence (P00519 whole entry): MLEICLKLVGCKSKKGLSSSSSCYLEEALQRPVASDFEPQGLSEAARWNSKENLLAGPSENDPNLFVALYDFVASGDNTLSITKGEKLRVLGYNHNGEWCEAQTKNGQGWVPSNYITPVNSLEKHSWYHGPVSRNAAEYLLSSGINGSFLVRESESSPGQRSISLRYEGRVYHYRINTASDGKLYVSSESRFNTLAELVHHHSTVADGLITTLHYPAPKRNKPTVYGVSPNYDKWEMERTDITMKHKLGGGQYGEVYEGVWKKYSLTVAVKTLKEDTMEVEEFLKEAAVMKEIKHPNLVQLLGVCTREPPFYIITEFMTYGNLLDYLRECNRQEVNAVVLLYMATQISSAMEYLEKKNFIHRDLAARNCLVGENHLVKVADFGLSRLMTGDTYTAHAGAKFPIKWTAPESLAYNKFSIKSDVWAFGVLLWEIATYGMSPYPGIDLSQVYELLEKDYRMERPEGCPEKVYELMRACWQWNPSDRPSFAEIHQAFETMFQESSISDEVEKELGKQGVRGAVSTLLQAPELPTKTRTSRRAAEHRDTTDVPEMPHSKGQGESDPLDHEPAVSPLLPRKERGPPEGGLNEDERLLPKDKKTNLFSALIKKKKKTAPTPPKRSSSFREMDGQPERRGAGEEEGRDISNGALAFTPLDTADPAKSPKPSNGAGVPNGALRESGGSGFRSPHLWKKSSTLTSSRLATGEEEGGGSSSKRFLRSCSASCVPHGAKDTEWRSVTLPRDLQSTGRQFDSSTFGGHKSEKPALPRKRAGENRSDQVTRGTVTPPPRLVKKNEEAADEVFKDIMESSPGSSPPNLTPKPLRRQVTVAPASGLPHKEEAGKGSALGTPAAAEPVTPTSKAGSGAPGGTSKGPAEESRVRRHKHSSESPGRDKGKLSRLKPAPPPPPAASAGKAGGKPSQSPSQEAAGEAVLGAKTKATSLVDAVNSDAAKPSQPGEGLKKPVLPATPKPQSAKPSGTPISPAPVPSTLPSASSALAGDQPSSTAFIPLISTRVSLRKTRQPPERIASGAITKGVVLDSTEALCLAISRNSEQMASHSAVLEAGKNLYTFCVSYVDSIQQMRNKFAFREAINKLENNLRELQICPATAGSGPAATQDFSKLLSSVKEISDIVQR
Method: A mixture of a 10× kinase buffer (80 mM MOPS at pH 7.0, 2 mM EDTA and 100 mM Magnesium Acetate), ATP (5 μM final from a 10 mM stock), a peptide […] (50 μM final from a 0.5 mM stock), γ-^33P ATP (10 μCi/μL stock) and water is added to each well (20 μl/well) of a Streptavidin Flashplate.
Test compound in 100% DMSO (0.5 μL) is added to the appropriate wells. Diluted c-Abl kinase (human) (Upstate Biotechnology, Lake Placid, N.Y.) (diluted in a buffer consisting of 20 mM MOPS at pH 7.0, 1 mM EDTA, β-mercaptoethanol (0.1%), Brij-35 (0.01%), glycerol (5%) and 1 mg/ml bovine serum albumin) (2.5 μL) is added to the wells to initiate the reactions.
The reaction plates are incubated at 30° C. for 40 min. The reaction is terminated by the addition of a 3% phosphoric acid solution (5 μL). The reaction product (10 μL) is spotted onto a P30 filtermat and is washed for 5 minutes in phosphoric acid (75 mM). The wash sequence is repeated two more times and is followed with one final wash in methanol. The plates are then dried, sealed and read on the TopCount scintillation counter after 30 μL scintillation fluid is added.
The 1% percent inhibition value for Compound 64 was derived according to the procedure described in Example 5 at a test concentration of 1 μM.

HER-2 = biological target: T5, HER-2 (Homo sapiens, UniProt P04626); test: HER-2 Kinase Assay; type: biochemical; details: GST-HER2, 1 μM ATP
T5 construct: the nucleotides encoding amino acids 679 to 1255 of HER-2; HIS6-Thrombin (His6 tag with thrombin site) (N); purchased Proqinase (Freiburg, Germany)
T5 sequence (P04626 679-1255): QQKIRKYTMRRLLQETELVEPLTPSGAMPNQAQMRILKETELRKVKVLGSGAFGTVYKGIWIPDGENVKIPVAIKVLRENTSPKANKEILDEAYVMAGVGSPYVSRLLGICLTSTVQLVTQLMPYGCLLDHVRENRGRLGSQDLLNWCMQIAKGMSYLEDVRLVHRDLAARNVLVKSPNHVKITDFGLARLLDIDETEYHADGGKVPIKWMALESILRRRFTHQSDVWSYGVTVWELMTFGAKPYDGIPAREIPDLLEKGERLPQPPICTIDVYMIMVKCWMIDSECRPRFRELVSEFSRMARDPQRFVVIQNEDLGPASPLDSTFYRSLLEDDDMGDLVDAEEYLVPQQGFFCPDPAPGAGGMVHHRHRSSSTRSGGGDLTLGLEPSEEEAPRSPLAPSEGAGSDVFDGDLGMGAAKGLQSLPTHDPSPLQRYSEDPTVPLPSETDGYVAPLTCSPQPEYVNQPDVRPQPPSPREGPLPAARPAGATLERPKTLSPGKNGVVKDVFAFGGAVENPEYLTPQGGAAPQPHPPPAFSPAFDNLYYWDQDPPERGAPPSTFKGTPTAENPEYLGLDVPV
Method: The HER-2 kinase used was purified at Proqinase (Freiburg, Germany) from a construct that consisted of a fusion of GST (Glutathione-S-Transferase), HIS6-Thrombin and the nucleotides encoding amino acids 679 to 1255 of HER-2.
A mixture of a 10× kinase reaction buffer (600 mM Hepes at pH 7.5, 30 mM Magnesium Chloride, 0.03 mM Sodium Vanadate and […] PEG 20,000), DTT (1.2 mM final from a 10 mM stock), ATP (1 μM from a 10 mM stock), biotinylated polyGluTyr (1.5 ng/μL final from stock of 1 μg/μL prepared by Upstate Biotechnologies, Lake Placid, N.Y.), Manganese Chloride (3 mM final from a 1 M stock), γ-^33P-ATP (10 μCi/μL stock) and water (70 μL/well) was added to each well of a Streptavidin Flashplate (Cat. # SMP103, NEN, Boston, Mass.).
Test compound stock (1 μL) was added to the appropriate wells. Diluted GSTHER2 kinase (6.7 ng/μL diluted into 50 mM Tris-HCl at pH 8.0 and 0.1% bovine serum albumin) (30 μL) was added (total volume of 200 ng/well) to initiate the reactions.
The reaction plates were incubated at 30° C. for 1 hr. The reaction was terminated by aspirating the reaction mixture from the plate wells and washing the wells three times with a 1×PBS stop buffer (300 μL) and 100 mM EDTA. After the final wash, the same stop buffer (200 μL) was again added to the wells. The plates were then sealed and read on the TopCount scintillation counter. […]

HeLa = test: Cell Proliferation Inhibition Assay (14C-thymidine incorporation), HeLa; type: cell-based; details: Homo sapiens
Description: (§1) The ability of a test compound to inhibit unregulated cell proliferation may be determined by measuring incorporation of ^14C-labelled thymidine into newly synthesized DNA within cell lines derived from carcinomas originating from several tissues. Accordingly, the anti-proliferative effect of a compound on cells with a variety of phenotypes may be determined.
(§2) Carcinoma cell lines include those such as HeLa cervical adenocarcinoma (American Type Culture Collection (ATCC), Virginia, Cat. #CCL-2), A375 malignant melanoma (ATCC CRL-1619), SK-OV-3 ovarian adenocarcinoma (ATCC HTB-77), HCT-116 colon carcinoma (CCL-247), PC-3 prostate adenocarcinoma (ATCC CRL-1435), and MDA-MB-231 (Xenogen Corp.)
(§3) The carcinoma cells are trypsinized and counted. […]
(§4) An aliquot of a solution of Methyl ^14C-thymidine (56 mC/mmol) (NEN #NEC568 or Amersham #CFA532) and complete medium (20 uL to provide 0.2 μCi/well) is then added to each well and the plate is incubated for a third 24 hr period at 37° C. in an atmosphere containing 5% CO2. […] The plate is sealed and the degree of methyl ^14C-thyrnidine incorporation is quantified on a Packard Top Count.

A375 = test: Cell Proliferation Inhibition Assay (14C-thymidine incorporation), A375; type: cell-based; details: Homo sapiens, A-375
Description: as §1, §2, §3, §4

HCT-116 = test: Cell Proliferation Inhibition Assay (14C-thymidine incorporation), HCT-116; type: cell-based; details: Homo sapiens
Description: as §1, §2, §3, §4

T1 sequence (P00533 667-1210 limits assumed): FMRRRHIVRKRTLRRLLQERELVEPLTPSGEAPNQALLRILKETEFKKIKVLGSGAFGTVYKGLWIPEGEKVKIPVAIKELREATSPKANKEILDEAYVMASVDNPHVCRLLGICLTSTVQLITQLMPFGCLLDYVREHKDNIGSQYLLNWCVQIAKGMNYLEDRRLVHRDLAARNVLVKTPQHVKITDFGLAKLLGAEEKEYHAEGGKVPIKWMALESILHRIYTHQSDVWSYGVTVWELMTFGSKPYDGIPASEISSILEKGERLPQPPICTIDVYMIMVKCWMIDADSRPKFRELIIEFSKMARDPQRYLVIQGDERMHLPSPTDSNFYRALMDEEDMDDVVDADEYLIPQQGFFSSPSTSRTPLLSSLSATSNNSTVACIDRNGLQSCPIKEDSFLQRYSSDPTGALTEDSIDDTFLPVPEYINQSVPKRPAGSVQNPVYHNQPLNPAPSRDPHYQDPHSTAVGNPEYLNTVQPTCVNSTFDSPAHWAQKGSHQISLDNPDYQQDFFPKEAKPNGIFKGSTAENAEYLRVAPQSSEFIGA

| IC50 (EGFR) [nM] | inhibition at 1 µM (c-Src kinase) [%] | inhibition at 1 µM (Lyn kinase) [%] | inhibition at 1 µM (c-Abl kinase) [%] | IC50 (HER-2) [nM] | IC50 (HeLa) [nM] | IC50 (A375) [nM] | IC50 (HCT-116) [nM] | SMILES |
| --- | --- | --- | --- | --- | --- | --- | --- | --- |
| 3.96 | 21 | 17 | 1 |  |  |  |  | C#Cc1cccc(Nc2ncnc3nc(Nc4ccc(CNC[C@H]5CCCO5)cc4)sc23)c1 [Cpd 64, N^7-(3-ethynyl-phenyl)-N^2-(4-{[(2R)-(tetrahydro-furan-2-ylmethyl)-amino]-methyl}-phenyl)-thiazolo[4,5-d]pyrimidine-2,7-diamine] |
| 20.3 |  |  |  | 276 | 2190 | 2030 | 3080 | CN1CCN(Cc2ccc(Nc3nc4ncnc(Nc5ccc(OCc6cccc(F)c6)c(Cl)c5)c4s3)cc2)CC1 [Cpd 68, N^7-[3-chloro-4-(3-fluoro-benzyloxy)-phenyl]-N^2-[4-(4-methyl-piperazin-1-ylmethyl)-phenyl]-thiazolo[4,5-d]pyrimidine-2,7-diamine] |
